Reference: BigSolDB 2.1

CC(C)(C)NSc1nc2ccccc2s1
solubility (mole fraction)
Settings	273.2 K	278.2 K	283.2 K	288.2 K	293.2 K	298.2 K	303.2 K	308.2 K	313.2 K
in ethanol	0.00951	0.0111	0.0133	0.0157	0.0198	0.0236	0.0278	0.0344	0.0419
in isopropanol	0.00844	0.00938	0.0122	0.015	0.0176	0.0208	0.025	0.0298	0.0352
in methanol	0.00591	0.00707	0.00834	0.00991	0.0123	0.0148	0.0178	0.0219	0.0266
in n-butanol	0.0177	0.0202	0.0237	0.028	–	0.0375	0.0444	0.0524	0.061
in tert-butylamine	0.0952	0.107	0.115	0.124	0.135	0.149	0.165	0.176	0.198
in toluene	0.0273	0.0355	0.0422	0.0518	0.0605	0.0691	0.084	0.102	0.122
